The values that follow come from patent US8188284B2, “2-aminoquinolines” (Hoffman-La Roche Inc., priority 2008, dated 2012).

Broadly, the melting point is the temperature, or range, at which the solid turns liquid.

For data set [1], the target named is T1, recombinant human 5-HT5A receptor (Homo sapiens, UniProt P47898).
T1 construct: expressed in transfected cells; host or cells: HEK-EBNA (Human Embryonic Kidney-EBNA) cells, transient cDNA expression, membranes
As to the kind of experiment: [3H]LSD radioligand binding assay. The following applies: [3H]LSD (approximately 1 nM), membranes from HEK-EBNA cells transiently expressing 5-HT5A receptors; Ki calculated from IC50 using the Cheng-Prussoff equation; read-out: Ki/nM 5-HT5A. How it is done:
A [^3H]LSD radioligand binding assay was used to determine the affinity of the compounds for the recombinant human 5-HT5A receptor, in membranes from transiently (cDNA) expressed 5-HT5A receptors in Human Embryonic Kidney-EBNA (HEK-EBNA) cells. Assay buffer consisted of Tris (50 mM) buffer containing 1 mM EGTA, 10 mM MgCl2 (pH 7.4) and 10 μM pargyline. The binding assay was carried out in 96-well-plates in the presence of [^3H]LSD (approximately 1 nM), approximately 2 μg/well of membrane protein, and 0.5 mg of Ysi-poly-1-lysine SPA beads in a final volume of 200 μl of buffer. Non-specific binding was defined using methiothepin 2 μM. Compounds were tested at 10 concentrations. All assays were conducted in duplicate and repeated at least two times. Assay plates were incubated for 120 min at room temperature before centrifugation. Bound ligand was determined using a Packard Topcount scintillation counter. IC50 values were calculated using a non-linear curve fitting program and Ki values calculated using the Cheng-Prussoff equation.

Structures are written as SMILES.

T1 sequence (P47898 whole entry): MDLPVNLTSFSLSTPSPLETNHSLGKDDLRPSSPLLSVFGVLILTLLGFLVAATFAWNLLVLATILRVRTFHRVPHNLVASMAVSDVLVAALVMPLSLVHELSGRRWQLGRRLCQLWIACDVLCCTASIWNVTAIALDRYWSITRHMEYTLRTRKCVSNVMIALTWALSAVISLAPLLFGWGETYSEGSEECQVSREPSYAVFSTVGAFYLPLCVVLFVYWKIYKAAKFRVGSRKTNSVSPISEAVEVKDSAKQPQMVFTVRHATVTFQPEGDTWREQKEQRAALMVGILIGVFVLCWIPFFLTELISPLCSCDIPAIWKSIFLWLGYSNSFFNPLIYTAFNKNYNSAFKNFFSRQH

In turn, `COc1cccc2c1C(Nc1ccc3cc(Nc4cccc(C(F)(F)F)n4)ccc3n1)CO2` (racemic) [Example 109, rac-N^2-(4-Methoxy-2,3-dihydro-benzofuran-3-yl)-N^6-(6-trifluoromethyl-pyridin-2-yl)-quinoline-2,6-diamine] gave a melting point of 132 °C. Also, the Ki in data set [1] was 26.1 nM.

For the compound `COc1cccc2c1C(Nc1ccc3cc(Nc4nccc(C(F)(F)F)n4)ccc3n1)CO2` (racemic) [Example 110, rac-N^2-(4-Methoxy-2,3-dihydro-benzofuran-3-yl)-N^6-(4-trifluoromethyl-pyrimidin-2-yl)-quinoline-2,6-diamine], the melting point worked out at 185 °C. The Ki in data set [1] was 11.8 nM. For `c1cnc(Nc2ccc3nc(N[C@@H]4CCc5ccccc54)ccc3c2)nc1` [Example 66, N^2—(R)-Indan-1-yl-N6-pyrimidin-2-yl-quinoline-2,6-diamine], the melting point was 142 °C. Moreover, the Ki in data set [1] was 23.2 nM.

`COc1cccc2c1C(Nc1ccc3cc(Nc4nccc(C(F)(F)F)n4)ccc3n1)CC2` (racemic) [Example 92, rac-N^2-(7-Methoxy-indan-1-yl)-N^6-(4-trifluoromethyl-pyrimidin-2-yl)-quinoline-2,6-diamine]: the melting point is 196 °C. Further, in data set [1], the Ki was 4.3 nM.

As to `Cc1cc(Nc2ccc3nc(N[C@@H]4CCc5ccccc54)ccc3c2)no1` [Example 74, N^2—(R)-Indan-1-yl-N^6-(5-methyl-isoxazol-3-yl)-quinoline-2,6-diamine], the melting point amounted to 127 °C. In data set [1], the Ki is 8.7 nM.

`COc1cccc2c1C(Nc1ccc3cc(Nc4cc(C)on4)ccc3n1)CC2` (racemic) [Example 95, rac-N^2-(7-Methoxy-indan-1-yl)-N^6-(5-methyl-isoxazol-3-yl)-quinoline-2,6-diamine] showed a melting point of 109 °C. Further, the Ki in data set [1] is 3.5 nM.

As to `Cc1cc(Nc2ccc3nc(NC4CCc5cc(F)ccc54)ccc3c2)no1` (racemic) [Example 106, rac-N^2-(5-Fluoro-indan-1-yl)-N^6-(5-methyl-isoxazol-3-yl)-quinoline-2,6-diamine], the melting point stood at 166 °C. The Ki in data set [1] was 7.3 nM. Compound `Cc1ccnc(Nc2ccc3nc(N[C@@H]4CCc5ccccc54)ccc3c2)n1` [Example 68, N^2—(R)-Indan-1-yl-N^6-(4-methyl-pyrimidin-2-yl)-quinoline-2,6-diamine] had a melting point of 103 °C. The Ki in data set [1] is 20 nM. As for `COc1cccc2c1C(Nc1ccc3cc(Nc4cc(C)on4)ccc3n1)CO2` (racemic) [Example 113, rac-N^2-(4-Methoxy-2,3-dihydro-benzofuran-3-yl)-N^6-(5-methyl-isoxazol-3-yl)-quinoline-2,6-diamine], the melting point turned out to be 222 °C. In addition, the Ki in data set [1] is 14.4 nM. Turning to `CC(C)(C)n1nnc(Nc2ccc3nc(N[C@@H]4CCc5ccccc54)ccc3c2)n1` [Example 75, N^6-(2-tert-Butyl-2H-tetrazol-5-yl)-N^2—(R)-indan-1-yl-quinoline-2,6-diamine], the melting point turned out to be 146 °C. For the same compound, the Ki in data set [1] is 25.9 nM.

`FC(F)(F)c1ccnc(Nc2ccc3nc(NC4COc5ccccc54)ccc3c2)n1` (racemic) [Example 98, rac-N^2-(2,3-Dihydro-benzofuran-3-yl)-N^6-(4-trifluoromethyl-pyrimidin-2-yl)-quinoline-2,6-diamine]: the melting point came to 128 °C. Same read-out and setting: as for `Cc1cc(C)nc(Nc2ccc3nc(NC4COc5ccccc54)ccc3c2)n1` (racemic) [Example 97, rac-N^2-(2,3-Dihydro-benzofuran-3-yl)-N^6-(4,6-dimethyl-pyrimidin-2-yl)-quinoline-2,6-diamine], the figure is 213 °C.

Regarding `COc1ccccc1CNC(=O)c1ccc2nc(N[C@@H]3CCc4ccccc43)ccc2c1` [Example 55, 2-((R)-Indan-1-ylamino)-quinoline-6-carboxylic acid 2-methoxy-benzylamide], the melting point was 168 °C. The Ki in data set [1] is 281 nM.

The compound `c1ccc2c(c1)CC[C@H]2Nc1ccc2cc(Nc3nnc(C4CC4)o3)ccc2n1` [Example 76, N^6-(5-Cyclopropyl-[1,3,4]oxadiazol-2-yl)-N^2—(R)-indan-1-yl-quinoline-2,6-diamine] displayed a melting point of 226 °C. The Ki in data set [1] was 24.8 nM.

In turn, `Cc1cc(C)nc(Nc2ccc3nc(N[C@@H]4CCc5ccccc54)ccc3c2)n1` [Example 67, N^6-(4,6-Dimethyl-pyrimidin-2-yl)-N^2—(R)-indan-1-yl-quinoline-2,6-diamine] displayed a melting point of 88 °C. For the same compound, the Ki in data set [1] was 15.7 nM. The matching figures for `COc1cccc2c1C(Nc1ccc3cc(Nc4nc(C)cc(C)n4)ccc3n1)CO2` (racemic) [Example 111, rac-N^6-(4,6-Dimethyl-pyrimidin-2-yl)-N^2-(4-methoxy-2,3-dihydro-benzofuran-3-yl)-quinoline-2,6-diamine]: 145 °C and 9.1 nM. The matching figures for `COc1cccc2c1C(Nc1ccc3cc(Nc4cccc(C(F)(F)F)n4)ccc3n1)CC2` (racemic) [Example 91, rac-N^2-(7-Methoxy-indan-1-yl)-N^6-(6-trifluoromethyl-pyridin-2-yl)-quinoline-2,6-diamine]: 126 °C and 5.4 nM. For `c1ccc(Nc2ccc3nc(N[C@@H]4CCc5ccccc54)ccc3c2)nc1` [Example 69, N^2—(R)-Indan-1-yl-N^6-pyridin-2-yl-quinoline-2,6-diamine], the melting point amounted to 77 °C. Further, the Ki in data set [1] was 20.4 nM. Take `Fc1ccc2c(c1)CCC2Nc1ccc2cc(Nc3nccc(C(F)(F)F)n3)ccc2n1` (racemic) [Example 103, rac-N^2-(5-Fluoro-indan-1-yl)-N^6-(4-trifluoromethyl-pyrimidin-2-yl)-quinoline-2,6-diamine]: the melting point came out at 112 °C. In data set [1], the Ki is 13.7 nM.

In turn, `COc1cccc2c1C(Nc1ccc3cc(Nc4nc(C)cc(C)n4)ccc3n1)CC2` (racemic) [Example 93, rac-N^6-(4,6-Dimethyl-pyrimidin-2-yl)-N^2-(7-methoxy-indan-1-yl)-quinoline-2,6-diamine] gave a melting point of 150 °C. Besides, the Ki in data set [1] was 3.4 nM. The matching figures for `FC(F)(F)c1ccnc(Nc2ccc3nc(N[C@@H]4CCc5ccccc54)ccc3c2)n1` [Example 73, N^2—(R)-Indan-1-yl-N^6-(4-trifluoromethyl-pyrimidin-2-yl)-quinoline-2,6-diamine]: 165 °C and 11 nM. The matching figures for `ON=C(c1ccc(F)cc1)c1ccc2nc(N[C@@H]3CCc4ccccc43)ccc2c1` [Example 56, (4-Fluoro-phenyl)-[2-((R)-indan-1-ylamino)-quinolin-6-yl]-methanone oxime]: 225.5 °C and 141 nM.

Regarding `O=C(NCc1ccc(F)cc1)c1ccc2nc(N[C@@H]3CCc4ccccc43)ccc2c1` [Example 52, 2-((R)-Indan-1-ylamino)-quinoline-6-carboxylic acid 4-fluoro-benzylamide], the melting point worked out at 175 °C. Same read-out and setting: as for `Cc1cc(Nc2ccc3nc(NC4COc5ccccc54)ccc3c2)no1` (racemic) [Example 101, rac-N^2-(2,3-Dihydro-benzofuran-3-yl)-N^6-(5-methyl-isoxazol-3-yl)-quinoline-2,6-diamine], the figure is 195 °C. `Cc1nnc(Nc2ccc3nc(N[C@@H]4CCc5ccccc54)ccc3c2)o1` [Example 77, N^2—(R)-Indan-1-yl-N^6-(5-methyl-[1,3,4]oxadiazol-2-yl)-quinoline-2,6-diamine] returned a melting point of 129 °C. The Ki in data set [1] is 21.2 nM.

For `O=S(=O)(Nc1ccc2nc(N[C@@H]3CCc4ccccc43)ccc2c1)c1ccc(F)cc1` [Example 14, 4-Fluoro-N-[2-((R)-indan-1-ylamino)-quinolin-6-yl]-benzenesulfonamide], in data set [1], the Ki was 36.4 nM. Same read-out and setting: then `O=C(Nc1cccc(F)c1)Nc1ccc2nc(N[C@@H]3CCc4ccccc43)ccc2c1` [Example 20, 1-(3-Fluoro-phenyl)-3-[2-((R)-indan-1-ylamino)-quinolin-6-yl]-urea], with 7.8 nM.

In the case of `OCCc1cccc(Nc2ccc3nc(N[C@@H]4CCc5ccccc54)ccc3c2)c1` [Example 83, 2-{3-[2-((R)-Indan-1-ylamino)-quinolin-6-ylamino]-phenyl}-ethanol], the melting point came to 109 °C. Further, in data set [1], the Ki was 9.6 nM. The matching figures for `Cc1cccc(Nc2ccc3nc(N[C@@H]4CCc5ccccc54)ccc3c2)n1` [Example 72, N^2—(R)-Indan-1-yl-N^6-(6-methyl-pyridin-2-yl)-quinoline-2,6-diamine]: 72 °C and 7.7 nM. For `O=C(Nc1ccc(F)cc1)Nc1ccc2nc(N[C@@H]3CCc4ccccc43)ccc2c1` [Example 19, 1-(4-Fluoro-phenyl)-3-[2-((R)-indan-1-ylamino)-quinolin-6-yl]-urea], the Ki in data set [1] was 6.5 nM.
